Reference: patent US7109296B2, “Human 5-HT3-C protein” (Ortho-McNeil Pharmaceutical, Inc., priority 1999, dated 2006)

Legend:
human 5-HT3-C = biological target: T1, human 5-HT3-C (Homo sapiens, UniProt Q8WXA8); experiment: Two-electrode voltage clamp, Xenopus oocytes injected with 5-HT3-C cRNA alone; format: cell-based
T1 construct: Characterization of the Function of Protein Encoded by p5HT3CR in Xenopus oocvtes; expressed in transfected cells; host or cells: Xenopus laevis oocytes injected with in vitro transcribed cRNA (pGEM HE)
T1 sequence (Q8WXA8 28-447): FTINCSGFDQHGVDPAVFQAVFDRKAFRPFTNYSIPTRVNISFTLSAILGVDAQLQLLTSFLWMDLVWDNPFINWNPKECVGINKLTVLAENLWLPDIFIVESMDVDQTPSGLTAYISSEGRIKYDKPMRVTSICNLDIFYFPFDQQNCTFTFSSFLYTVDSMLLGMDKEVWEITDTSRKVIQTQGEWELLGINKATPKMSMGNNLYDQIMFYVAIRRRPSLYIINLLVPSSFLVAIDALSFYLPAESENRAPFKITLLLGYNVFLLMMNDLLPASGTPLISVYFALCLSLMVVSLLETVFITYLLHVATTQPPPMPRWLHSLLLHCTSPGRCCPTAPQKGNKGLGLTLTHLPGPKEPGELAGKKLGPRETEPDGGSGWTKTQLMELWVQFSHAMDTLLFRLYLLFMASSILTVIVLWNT
Method: Characterization of the Function of Protein Encoded by p5HT3CR in Xenopus oocvtes Xenopus laevis oocytes were prepared and injected using standard methods previously described and known in the art (Fraser et al., 1993). Ovarian lobes from adult female Xenopus laevis (Nasco, Fort Atkinson, Wis.) were teased apart, rinsed several times in nominally Ca-free saline containing (in mM): NaCl 82.5, KCl 2.5, MgCl2 1, HEPES 5, adjusted to pH 7.0 with NaOH(OR-2), and gently shaken in OR-2 containing 0.2% collagenase Type 1 (ICN Biomedicals, Aurora, Ohio) for 2–5 hours. When approximately 50% of the follicular layers were removed, Stage V and VI oocytes were selected and rinsed in media consisting of 75% OR-2 and 25% ND-96. The ND-96 contained (in mM): NaCl 100, KCl 2, MgCl2 1, CaCl2 1.8, HEPES 5, Na pyruvate 2.5, gentamicin (50 ug/ml), adjusted to pH 7.0 with NaOH. […] For in vitro transcription, pGEM HE (Liman et al., 1992) containing human 5-HT3-A (Genbank D49394) or 5-HT3-C cDNA was linearized with NheI and transcribed with T7 RNA polymerase (Stratagene) in the presence of the cap analog m7G(5′)ppp(5′)G. The synthesized cRNA was purified with a Sephadex G-50 spin column. […] Control oocytes were injected with 50 nl of water. Oocytes were incubated for 2–14 days in ND-96 before analysis for expression of the human 5-HT3-C. Incubations and collagenase digestion were carried out at room temperature. Injected oocytes were maintained in 48 well cell culture clusters (Costar, Cambridge, Mass.) at 18° C. Whole cell agonist-induced currents were measured 1–14 days after injection with a conventional two-electrode voltage clamp (GeneClamp500, Axon Instruments, Foster City, Calif.) using standard methods previously described and known in the art (Dascal, 1987). The microelectrodes were filled with 3 M KCl, which had resistances of 1 and 2 MΩ. Cells were continuously perfused with ND96 at 10 ml/min at room temperature unless indicated. Membrane voltage was clamped at −70 mV unless indicated.

[1] = biological target: T2, long form of human 5-HT3-A together with 5-HT3-C (Homo sapiens, UniProt P46098+Q8WXA8); experiment: Two-electrode voltage clamp, oocytes co-injected with long form of human 5-HT3-A and 5-HT3-C; format: cell-based; settings: 10 μM; n=2
T2 construct: Characterization of the Function of Protein Encoded by p5HT3CR in Xenopus oocvtes; expressed in transfected cells; host or cells: Xenopus laevis oocytes co-injected with cRNAs
T2 sequence (P46098 24-510 isoform P46098-2): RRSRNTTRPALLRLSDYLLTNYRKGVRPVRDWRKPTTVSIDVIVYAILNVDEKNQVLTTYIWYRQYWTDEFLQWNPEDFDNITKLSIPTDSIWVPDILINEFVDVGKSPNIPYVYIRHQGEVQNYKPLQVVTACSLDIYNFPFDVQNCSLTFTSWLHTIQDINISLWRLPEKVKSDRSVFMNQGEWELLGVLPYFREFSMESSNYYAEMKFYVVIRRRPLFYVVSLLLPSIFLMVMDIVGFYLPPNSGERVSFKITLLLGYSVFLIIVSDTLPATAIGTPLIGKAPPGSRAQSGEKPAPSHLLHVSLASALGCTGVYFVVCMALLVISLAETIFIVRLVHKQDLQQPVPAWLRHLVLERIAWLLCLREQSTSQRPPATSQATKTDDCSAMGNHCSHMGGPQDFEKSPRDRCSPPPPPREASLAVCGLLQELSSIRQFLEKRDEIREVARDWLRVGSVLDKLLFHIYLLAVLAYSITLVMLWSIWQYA
T2 sequence (Q8WXA8 28-447): T1 sequence (Q8WXA8 28-447)
Method: Characterization of the Function of Protein Encoded by p5HT3CR in Xenopus oocvtes Xenopus laevis oocytes were prepared and injected using standard methods previously described and known in the art (Fraser et al., 1993). Ovarian lobes from adult female Xenopus laevis (Nasco, Fort Atkinson, Wis.) were teased apart, rinsed several times in nominally Ca-free saline containing (in mM): NaCl 82.5, KCl 2.5, MgCl2 1, HEPES 5, adjusted to pH 7.0 with NaOH(OR-2), and gently shaken in OR-2 containing 0.2% collagenase Type 1 (ICN Biomedicals, Aurora, Ohio) for 2–5 hours. When approximately 50% of the follicular layers were removed, Stage V and VI oocytes were selected and rinsed in media consisting of 75% OR-2 and 25% ND-96. The ND-96 contained (in mM): NaCl 100, KCl 2, MgCl2 1, CaCl2 1.8, HEPES 5, Na pyruvate 2.5, gentamicin (50 ug/ml), adjusted to pH 7.0 with NaOH. […] Whole cell agonist-induced currents were measured 1–14 days after injection with a conventional two-electrode voltage clamp (GeneClamp500, Axon Instruments, Foster City, Calif.) using standard methods previously described and known in the art (Dascal, 1987). […]

sensitivity of oocytes to neuroactive compound (human 5-HT3-C; >100 μM, only 5-HT3-C cRNA (33.5 ng), n=5): insensitive
effect of agonist (agonist-induced current) (human 5-HT3-C; ≧100 μM, 33.5 ng or 3.35 ng 5-HT3-C cRNA/oocyte): no effect
sensitivity of oocytes to agonist [1]: insensitive
Structure (SMILES): NCCc1c[nH]c2ccc(O)cc12 [5-HT, 5-hydroxytryptamine]
